Reference: PMC7747594, “Protease-activated receptor-2 ligands reveal orthosteric and allosteric mechanisms of receptor inhibition” (Communications Biology, 2020)
Several values for one entry are separate records, joined by “and”; a condition that tells them apart may be missing. Equal entries are not always repeated.

Assays:
[1] = test system: myeloperoxidase (MPO) activity; test: Myeloperoxidase assay on rat paw tissue; assay type: in vivo; conditions: for MPO activity (unit mg^-1): 2f-induced rat paw oedema, paw tissue, individual animals (Figure 5i); for Myeloperoxidase (MPO) activity increased by 2f-LIGRLO-NH2: pre-treatment, 30 min
Description: Rat paw tissues were collected, snap-frozen with liquid N2, and stored at −80 °C. Samples were cut with a scalpel, weighed, and added to MPO buffer (50 mM potassium phosphate buffer, pH 6.0) to a concentration of 200 mg ml^−^1, before homogenising using zirconium oxide beads (1 and 2 mm, Next Advance, USA) and a Bullet Blender® homogeniser (Next Advance, USA). Homogenised tissues were diluted to 100 mg ml^−1 with MPO buffer containing 1% hexadecyl trimethylammonium bromide (Sigma-Aldrich, USA). Samples were then sonicated for 5 min, centrifuged at 13,000 × g for 10 min at 4 °C, and the clear supernatant for each sample was collected.

mast cells = test: Immunohistochemistry, histamine release in rat paw; assay type: in vivo; conditions: pre-treatment; 30 min
Description: (§1) Rat paw tissues were collected, fixed in 10% neutral-buffered formalin (Sigma-Aldrich) for 2 h at 4 °C, transferred into falcon tubes containing 25% sucrose in PBS and left overnight at 4 °C. Tissues were then embedded with Optimal Cutting Temperature compound (OCT, Sakura Finetek, USA) and stored at −80 °C before making cryo-sections for histological analysis. Frozen sections (5 µm) were made using a cryostat-microtome (Leica Biosystems, Germany). For mast cell staining, slides were briefly washed with distilled water before staining with 0.1% toluidine blue (Sigma-Aldrich, pH 2.5) for 3 min. Slides were then dehydrated and mounted in DPX mountant (Sigma-Aldrich, USA). For immunohistochemistry, slides were briefly rinsed with PBS to remove OCT. Except for tryptase staining, antigen retrieval was performed by incubating slides in citrate buffer (0.01 M, pH 6) at 95 °C for 20 min. They were then cooled down briefly and incubated with blocking medium (PBS, 0.1% Triton X-100, 10% horse serum) for 1 h at room temperature in a humidity chamber. Samples were incubated with primary antibody medium (PBS, 0.1% Triton X-100, 4% horse serum; 1:100 primary antibody including – histamine, neutrophil elastase or ED1 antibodies) overnight at 4 °C. […] Tryptase-, neutrophil elastase- and ED1-positive cells were quantified using FIJI/ImageJ 1.42q software, USA.

macrophages = test: Immunohistochemistry, ED1-positive macrophages in rat paw; assay type: in vivo; conditions: 30 min after agonist administration
Description: as §1

hPAR2 = molecular target: T1, hPAR2 (Homo sapiens, UniProt P55085); test: Ca^2+ flux assay, inhibition of tryptase activation in 1321N1-hPAR2 cells; assay type: cell-based; conditions: 1 µM Vorapaxar
T1 sequence (P55085 26-397): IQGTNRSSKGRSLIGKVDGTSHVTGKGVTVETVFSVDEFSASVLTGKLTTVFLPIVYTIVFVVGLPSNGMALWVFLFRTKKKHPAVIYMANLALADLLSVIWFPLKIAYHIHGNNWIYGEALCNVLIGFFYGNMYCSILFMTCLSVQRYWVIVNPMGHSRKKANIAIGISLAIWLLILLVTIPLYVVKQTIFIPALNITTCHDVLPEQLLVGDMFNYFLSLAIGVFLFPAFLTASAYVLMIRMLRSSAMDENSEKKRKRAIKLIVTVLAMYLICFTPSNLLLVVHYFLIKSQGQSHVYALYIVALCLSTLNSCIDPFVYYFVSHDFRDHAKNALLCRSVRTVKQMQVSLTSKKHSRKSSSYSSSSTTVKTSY
Description: For evaluation of Ca^2+ mobilisation, 1321N1-hPAR2 cells were seeded in 384-well CellBIND plates (Corning) at 4000 cells per well in DMEM containing 10% FBS and incubated for 18–24 hours at 37 °C, 5% CO2 and 95% humidity. Cells were loaded with Fluo-8 NW calcium dye (AAT Bioquest) for 30 min at 37 °C before compounds in Hank’s balanced salt solution (HBSS, ThermoFisher Scientific) with 20 mM HEPES (ThermoFisher Scientific), 0.1% bovine serum albumin (BSA, Sigma) and 0.5% DMSO were added and simultaneously evaluated for changes in intracellular [Ca^2+] using FLIPR TETRA (Molecular Devices) to detect agonism. For each concentration, the difference between the maximum peak Ca^2+ response and baseline response is reported. […] Inhibition of Ca^2+ release on rat PAR2 was measured in the same way using 10 000 KNRK cells per well seeded in poly-D-lysine coated 384-well plates (Greiner), 30 min preincubation with the compound before activation of PAR2 with EC80 of SLIGRL-NH2 (120 µM) and real-time detection of Ca^2+. […] Intracellular [Ca^2+] flux was measured using FLIPR TETRA (Molecular Devices) and the difference between the maximum peak Ca^2+ response and baseline response is reported.

| SMILES | MPO activity (unit mg^-1) [1] | Myeloperoxidase (MPO) activity increased by 2f-LIGRLO-NH2 [1] | histamine release (mast cells) | number of ED1 +ve cells in rat paw tissue compared to sham (macrophages) | inhibition of tryptase-induced Ca^2+ response (hPAR2) |
| --- | --- | --- | --- | --- | --- |
| CCCc1cc(F)ccc1C(O)c1ncc[nH]1 (stereo not shown) [AZ8838] | 0.2682 unit mg^-1 and 0.2003 unit mg^-1 and 0.454 unit mg^-1 and 0.2121 unit mg^-1 and 0.4127 unit mg^-1 | reduced almost to baseline | blocked | no significant difference |  |
| C[C@@H](C1CCCCC1)n1c(-c2cc3c(cc2Br)OCO3)nc2cc(C(=O)Nc3ccncc3)ccc21 [AZ2623] |  |  |  |  | only partial inhibition at low |
| C[C@@H](C1CCCCC1)n1c(-c2cc3c(cc2Br)OCO3)nc2cc(C(=O)Nc3ccc(C#N)cc3)ccc21 [AZ3451] | 0.2692 unit mg^-1 and 0.2802 unit mg^-1 and 0.295 unit mg^-1 and 0.3577 unit mg^-1 | reduced almost to baseline | blocked | no significant difference | only partial inhibition at low |
